Results from US10577406B2, “FKBP-L polypeptides and uses in angiogenesis-mediated disorders” (ALMAC DISCOVERY LIMITED, priority 2006, dated 2020).

System: mouse endothelial cells, 2H-11
Experiment: wound scrape assay in a mouse endothelial cell line
Format: cell-based
Conditions: 10^−14-10^−7 M; 7 hours
Protocol: This experiment evaluated the ability of the FKBP-L 24mer to inhibit endothelial cell migration over a dose ranges spanning from 10^−14 M to 10^−7 M. The in vitro migration assay used in these studies is a modified version of the method described by Ashton et al (1999) see supra. In this assay mouse endothelial cells, 2H-11, were obtained from the American Tissue Culture Collection and were grown in D-MEM containing 10% FCS. They were plated into individual chambers on a glass slide and grown to 90% confluence overnight. The medium was removed and the monolayer wounded. The monolayer was re-supplemented with fresh medium and the required volume of the FKBPL 24mer peptide was added to achieve a dose range from 10^−14-10^−7 M. The monolayers were incubated for 7 hours and then fixed in 4% PBS buffered paraformaldehyde.
The extent of “wound” closure was blindly assessed microscopically by an independent investigator and quantified using a calibrated eyepiece graticule (1 mm/100 μm graduation) at 20× magnification (Olympus BX 50). The extent of closure in the FKBP-L 24mer treated slides was compared to time matched sham treated controls and the % inhibition of wound closure compared to time matched controls calculated.

## H-QIRQQPRDPPTETLELEVSPDPAS-OH [FKBP-L 24mer]
  effect on wound closure in mouse endothelial cells: inhibited wound closure
